According to US5380825A (Sigma Chemical Company, priority 1991, dated 1995):
In brackets after ≈: the same amount, converted by molar mass.

Assays:
Type in all cases: binding
AZT antibodies = assay: Immunological activity / tracer performance in FPIA for AZT (qualitative); conditions: for inhibition in FPIA for AZT: inhibitor of polarization
Experimental: (§1) An equal volume of precipitation reagent was added per microcentrifuge tube. The tubes were centrifuged at greater than 9,000×g for 1 minute.
(§2) (2) A 17.5 ul sample of each serum extract was brought to approximately pH 7-8 by the addition of buffer.
(§3) (4) After an appropriate incubation time, the polarization of each reaction mixture was determined using a polarization spectrofluorimeter.

[1] = test system: antisera to AZT, Rabbit 1 (immunized with AZT-3-V:BSA); assay: FPIA comparison of tracers, antiserum of Rabbit 1 (Table 1); conditions: for Polarization Units (P × 1000): 1 pmole of tracer, antiserum at the given titer; for ED50 AZT: concentration of AZT giving 50% reduction in polarization of this tracer relative to 0 tube; for Titer [Ab]: dilution of antiserum required to obtain the given polarization units with 1 pmole of tracer
Experimental: (§4) The immunogen (1 mg in 1 ml) was emulsified with an equal volume of Freund's Complete Adjuvant and injected intradermally into each of two female albino rabbits. The process was repeated in two weeks. Two weeks later, monthly subcutaneous booster injections were begun with 0.5 mg in 0.5 ml of the immunogen and 0.5 ml of Freund's Incomplete Adjuvant per animal. The rabbits were bled biweekly by a marginal ear vein technique beginning six weeks after the primary immunization. The blood collected was refrigerated, allowing clots to form, and the supernatant (antiserum) retained. The antiserum from each rabbit was collected and stored, either at -20° C. without preservative, or at 4° C. after addition of sodium azide to a final concentration of 0.1%. The same schedule was followed for each immunogen. Rabbits immunized produced antibodies to AZT.
(§5) Fluorescence Polarization Immunoassay for AZT
as §1, §2, §3
(§6) As further illustration of the invention polyclonal antibodies were raised in two rabbits by immunization with the conjugate of Example 4 (AZT-3-V:BSA) as is more fully described in Example 45 and stored at 4° C. with 0.1% sodium azide. A number of tracers were then compared as to their performance in FPIA using the antisera raised from two rabbits.
(§7) ^(1) TITER was defined as the dilution of antiserum (i.e., [Ab])
(§8) required to obtain the given polarization units (P × 1000) with 1
(§9) required to give a 50% reduction in polarization relative to a control (0
(§10) tube) containing no unlabeled AZT.

[2] = test system: antisera to AZT, Rabbit 2 (immunized with AZT-3-V:BSA); assay: FPIA comparison of tracers, antiserum of Rabbit 2 (Table 1); conditions: for Polarization Units (P × 1000): 1 pmole of tracer, antiserum at the given titer; for ED50 AZT: concentration of AZT giving 50% reduction in polarization of this tracer relative to 0 tube; for Titer [Ab]: dilution of antiserum required to obtain the given polarization units with 1 pmole of tracer
Experimental: as §4, §5, §1, §2, §3, §6, §7, §8, §9, §10

| Molecule | immunological activity in FPIA for AZT (AZT antibodies; qualitative) | "cross-reactivity" relative to AZT in an AZT assay by FPIA (AZT antibodies; relative to AZT) | Polarization Units (P × 1000) [1] [P × 1000] | ED50 AZT [1] [µg/mL] | Titer [Ab] [1] | Polarization Units (P × 1000) [2] [P × 1000] | ED50 AZT [2] [µg/mL] | Titer [Ab] [2] | affinity and sensitivity as tracer (AZT antibodies; qualitative) | performance as tracer for determination of AZT by FPIA (AZT antibodies; qualitative) | inhibition in FPIA for AZT (AZT antibodies; qualitative) |
| --- | --- | --- | --- | --- | --- | --- | --- | --- | --- | --- | --- |
| 3-carbethoxy-3'-azido-3'-deoxythymidine [Example 21] | immunologically active | approximately 110% | – | – | – | – | – | – | – | – | – |
| Cc1cn([C@H]2C[C@H](N=[N+]=[N-])[C@@H](CO)O2)c(=O)n(CCNc2nc(Cl)nc(Nc3ccc4c(c3)C(=O)OC43c4ccc(O)cc4Oc4cc(O)ccc43)n2)c1=O [AZT--(CH2)n --NH:DTAF, n=2] | – | – | 162 | 4.0 (≈ 5.2 µM) | 250 | 156 | > 8.0 | 125 | – | – | – |
| Cc1cn([C@H]2C[C@H](N=[N+]=[N-])[C@@H](CO)O2)c(=O)n(CCCCC(=O)Nc2ccc3c(c2)C(=O)OC32c3ccc(O)cc3Oc3cc(O)ccc32)c1=O [Example 6] | immunologically active | – | 179 | 4.0 (≈ 5.74 µM) | 300 | 175 | 8.0 (≈ 11.5 µM) | 130 | – | – | – |
| Cc1cn([C@H]2C[C@H](N=[N+]=[N-])[C@@H](CO)O2)c(=O)n(CCCCC(=O)NCCNC(=S)Nc2ccc3c(c2)C(=O)OC32c3ccc(O)cc3Oc3cc(O)ccc32)c1=O [Example 7, 5-[[5-(3'-azido-3'-deoxythymid-3-yl)-valeramido]-ethylthiocarbamyl]-fluorescein] | – | – | – | – | 1 | 197 | > 8.0 | 3 | – | – | – |
| Cc1cn([C@H]2C[C@H](N=[N+]=[N-])[C@@H](CO)O2)c(=O)n(CCCC(=O)Nc2ccc3c(c2)C(=O)OC32c3ccc(O)cc3Oc3cc(O)ccc32)c1=O [Example 13, 5-[4-(3'-azido-3'-deoxythymid-3-yl)-butyramido]-fluorescein] | – | – | 170 | 1.3 (≈ 1.9 µM) | 450 | 179 | 3.9 (≈ 5.71 µM) | 115 | satisfactory affinity and sensitivity | – | – |
| Cc1cn([C@H]2C[C@H](N=[N+]=[N-])[C@@H](CO)O2)c(=O)n(CCCC(=O)Nc2ccc3c(c2)C2(OC3=O)c3ccc(O)cc3Oc3cc(O)ccc32)c1=O [Example 14, 6-[4-(3'-azido-3'-deoxythymid-3-yl)-butyramido]-fluorescein] | – | – | 167 | 0.6 (≈ 0.879 µM) | 150 | 159 | 1.4 (≈ 2.05 µM) | 74 | – | – | – |
| Cc1cn([C@H]2C[C@H](N=[N+]=[N-])[C@@H](CO)O2)c(=O)n(CCCC(=O)NCCNC(=S)Nc2ccc3c(c2)C(=O)OC32c3ccc(O)cc3Oc3cc(O)ccc32)c1=O [Example 15, 5-[[4-(3'-azido-3'-deoxythymid-3-yl)-butyramido]-ethylthiocarbamyl]-fluorescein] | Immunological activity against AZT was confirmed | – | 165 | 4.0 (≈ 5.1 µM) | 200 | 184 | 4.0 (≈ 5.1 µM) | 73 | – | – | – |
| COC(=O)C(Cc1ccc(O)cc1)NC(=O)CCCn1c(=O)c(C)cn([C@H]2C[C@H](N=[N+]=[N-])[C@@H](CO)O2)c1=O (stereo partly drawn) [Example 16, 2-[4-(3'-azido-3'-deoxythymid-3-yl)-butyramido]-3-(4-hydroxyphenyl)-propionic acid methyl ester] | immunologically active | – | – | – | – | – | – | – | – | – | – |
| COc1nc(NCCn2c(=O)c(C)cn([C@H]3C[C@H](N=[N+]=[N-])[C@@H](CO)O3)c2=O)nc(Nc2ccc3c(c2)C(=O)OC32c3ccc(O)cc3Oc3cc(O)ccc32)n1 [Example 17, 3-[2-[4-(Fluoresceinyl-5)-6-methoxy-s-triazin-2-yl]aminoethyl]-3'-azido-3'-deoxythymidine] | immunologically active | – | 160 | 2.5 (≈ 3.27 µM) | 190 | 179 | 4.9 (≈ 6.41 µM) | 100 | – | – | – |
| Cc1cn([C@H]2C[C@H](N=[N+]=[N-])[C@@H](CO)O2)c(=O)n(CCCC(=O)NCC(=O)N[C@@H](Cc2ccc(O)cc2)C(=O)O)c1=O [Example 18, N-[4-(3'-azido-3'-deoxythymid-3-yl)-butyryl]-glycyl-L-tyrosine] | immunologically active | – | – | – | – | – | – | – | – | – | – |
| Cc1cn([C@H]2C[C@H](N=[N+]=[N-])[C@@H](CO)O2)c(=O)n(CC(=O)O)c1=O [Example 19, 3-carboxymethyl-3'-azido-3'-deoxythymidine] | immunological activity | – | – | – | – | – | – | – | – | – | – |
| Cc1cn([C@H]2C[C@H](N=[N+]=[N-])[C@@H](CO)O2)c(=O)n(CC(=O)Nc2ccc3c(c2)C(=O)OC32c3ccc(O)cc3Oc3cc(O)ccc32)c1=O [Example 22, 5-[2-(3'-azido-3'-deoxythymid-3-yl)-acetamido]-fluorescein] | – | – | 164 | 1.4 (≈ 2.14 µM) | 150 | 150 | 2.0 (≈ 3.06 µM) | 105 | – | – | – |
| Cc1cn([C@H]2C[C@H](N=[N+]=[N-])[C@@H](CO)O2)c(=O)n(CC(=O)NCCNC(=S)Nc2ccc3c(c2)C(=O)OC32c3ccc(O)cc3Oc3cc(O)ccc32)c1=O [Example 23, 5-[[2-(3'-azido-3'-deoxythymid-3-yl)-acetamido]-ethylthiocarbamyl]-fluorescein] | – | – | 173 | 2.4 (≈ 3.17 µM) | 53 | 164 | 1.4 (≈ 1.85 µM) | 28 | – | – | – |
| Cc1cn([C@H]2C[C@H](N=[N+]=[N-])[C@@H](CO)O2)c(=O)n(CCCN2C(=O)c3ccccc3C2=O)c1=O [Example 26, 3-(3-phthalimidopropyl)-3'-azido-3'-deoxythymidine] | immunologically active | – | – | – | – | – | – | – | – | – | – |
| Cc1cn([C@H]2C[C@H](N=[N+]=[N-])[C@@H](CO)O2)c(=O)n(CCCN)c1=O [Example 28, 3-(3-aminopropyl)-3'-azido-3'-deoxythymidine] | immunologically active | – | – | – | – | – | – | – | – | – | – |
| Cc1cn([C@H]2C[C@H](N=[N+]=[N-])[C@@H](CO)O2)c(=O)n(CCNC(=S)Nc2ccc3c(c2)C(=O)OC32c3ccc(O)cc3Oc3cc(O)ccc32)c1=O [Example 29, 5-[2-(3'-azido-3'-deoxythymid-3-yl)-ethyl-thiocarbamyl]fluorescein] | – | – | 180 | 3.9 (≈ 5.57 µM) | 150 | 177 | 2.9 (≈ 4.14 µM) | 58 | – | satisfactory tracer | – |
| Cc1cn([C@H]2C[C@H](N=[N+]=[N-])[C@@H](CO)O2)c(=O)n(CCCNC(=S)Nc2ccc3c(c2)C(=O)OC32c3ccc(O)cc3Oc3cc(O)ccc32)c1=O [Example 30, 5-[3-(3'-azido-3'-deoxythymid-3-yl)-propyl-thiocarbamyl]fluorescein] | – | – | 159 | > 4.0 | 80 | 170 | 4.0 (≈ 5.6 µM) | 80 | – | satisfactory tracer | – |
| Cc1cn([C@H]2C[C@H](N=[N+]=[N-])[C@@H](CO)O2)c(=O)n(CCNC(=O)CCc2ccc(O)cc2)c1=O [Example 33, 3-[2-[3-(4-hydroxyphenyl)-propionamido]-ethyl]-3'-azido-3'-deoxythymidine] | – | – | – | – | – | – | – | – | – | – | effective inhibitor of polarization |
| Cc1cn([C@H]2C[C@H](N=[N+]=[N-])[C@@H](CO)O2)c(=O)n(CCCNC(=S)Nc2ccc3c(c2)C2(OC3=O)c3cc(I)c(O)c(I)c3Oc3c2cc(I)c(O)c3I)c1=O [Example 36, 6-[3-(3 '-amido-3'-deoxythymid-3-yl)-propyl-thiocarbamyl]-erythrosin] | immunologically active | – | – | – | – | – | – | – | – | – | – |
| Cc1cn([C@H]2C[C@H](N=[N+]=[N-])[C@@H](COC(=O)CCC(=O)NCCNC(=S)Nc3ccc4c(c3)C(=O)OC43c4ccc(O)cc4Oc4cc(O)ccc43)O2)c(=O)[nH]c1=O [Example 42] | Immunoactivity of this label was demonstrated | – | – | – | – | – | – | – | – | – | – |
| O=C(O)CCc1ccc(O)cc1 [HPPA, 3-(4-hydroxyphenyl)propionic acid, reference compound] | – | – | – | – | – | – | – | – | – | – | unlike 3-(4-hydroxyphenyl)propionic acid (HPPA), was an effective inhibitor of polarization |
